Each structure is given as a SMILES string.

The source of these data is patent publication EP0103552B1, “Novel derivatives of guanine” (priority 1982, dated 1984).

The test system of one data set is herpes simplex type 1. The data set is described as follows: plaque reduction assay, inhibition of virus multiplication in cell cultures. Type of data set: cell-based. The conditions noted are these: herpes simplex type 1 plaque on Vero cell mono-layers. Here is the method: The inhibition of herpesvirus by VIS 590 and VSA 687 has been measured as plaque reduction according to the following procedure. The plaque reduction assay for herpes simplex type 1 was performed on Vero (Green Monkey Kidney) cells as described by Ejercito et al., J. Gen. Virol. 2 (1968) 357. Monolayers on 5 cm petri dishes were used and after virus adsorption the compounds to be tested were added to-the medium.
Background: In a plaque reduction assay, fewer plaques than in the control indicate reduced infectivity or spread.

The subject of the next data set is Vero cells. The data set is described as follows: cellular toxicity, reduction in cell growth. To be noted: at 100 µM. It is filed as cell-based, Green Monkey. Here is the method: (§1) The method used has been described by Stenberg (Biochemical Pharmacology, Vol. 30 (1980), 1005-1008). […] However, at this concentration, herpes virus multiplication was inhibited to more than 90% (see Table 1). Table 2. Cellular toxicity of VIS 590 expressed as percent reduction in cell growth after 48 h of incubation.

Data set [1] in a line: cellular toxicity, reduction in cell growth. It is filed as cell-based, Green Monkey. The conditions noted are these: monkey, vero cells; Conc. 100 µM; after 48 h of incubation; read-out: Percent reduction in growth of Vero cells, determined as cell number. Here is the method:
as §1

The compound `Nc1nc2c(ncn2CC(=O)C(O)CO)c(=O)[nH]1` (stereo not shown) [VSA 687, 9-(2-oxo-3,4-dihydroxybutyl)guanine] displayed an Inhibition % with herpes simplex type 1 (Conc. 35 μ) of more than 90%.
In turn, `Nc1nc2c(ncn2CC(=O)CCO)c(=O)[nH]1` [VIS 590, 9-(2-oxo-4-hydroxybutyl)guanine] registered an Inhibition % in the data set on herpes simplex type 1 (Conc. 10 μ) of 35%. The “effect on cell growth (in words)” value with Vero cells is given as “did not affect cell growth”. Also, in data set [1], the inhibition at 48 h, 100 µM worked out at 0%.
